Molecules are shown by their SMILES.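 Exposure lasted 48 hours, with cells grown in 96-well plates and compounds tested at five concentrations. Abbreviation: GI50, concentration required for 50% inhibition of growth. TGI is the concentration that stops growth completely.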

Here are results for 16 compounds from PubChem BioAssay (NCI).

Assay in all cases: NCI-60 cell line screen, 48 h
The subject of test [1] is OVCAR-4 ovarian.
In test [2] the test system is SF-268 CNS.
Test [3] has as its system IGROV1 ovarian.
The test system of test [4] is LOX IMVI melanoma.
The test system of test [5] is NCI-H23 lung.
The test system of test [6] is SK-MEL-28 melanoma.
Test [7] relates to NCI-H522 lung.
Test [8] deals with MALME-3M melanoma.
The subject of test [9] is SR leukemia.
Test [10] concerns SNB-75 CNS.

In the case of `CN1CCN(Cc2ccc(NC(=O)c3ccc(C#Cc4c(N)ncc5ccc(F)cc45)cc3)cc2C(F)(F)F)CC1`, the GI50 in [1] was 1.48 µM; in test [2] it was 0.948 µM; in test [3] it was 1.13 µM; in test [4], 0.929 µM; in test [5], 0.968 µM; in [6], 1.01 µM. Further, the GI50 in test [7] was 0.86 µM; in test [8], 0.945 µM; in [9], 0.897 µM. In addition, the TGI turned out to be 5.83 µM in [1]; 2.14 µM in [2]; 2.56 µM in [3]; 1.69 µM in test [4]; 1.89 µM in test [5]; 1.74 µM in test [6]. The TGI worked out at 1.59 µM in test [7], 1.8 µM in test [8] and 2.32 µM in test [9].
Regarding `C=C(c1ccc(C(=O)N(C)c2ccccc2N)cc1)C(C)N1C(=O)[C@H]2CCCN2C(=O)c2ccccc21` (some centres undefined), the GI50 is 2.91 µM in test [1]; 25 µM in [2]; 69.5 µM in test [3]; 34.2 µM in test [4]; 17.1 µM in test [10]; 61.6 µM in [5]. Further, the GI50 was 31.2 µM in [6], 17.7 µM in [7] and 18.7 µM in test [9]. For the same compound, the TGI in test [1] is 41.2 µM; in test [2] it was above 100 µM; in test [3], above 100 µM; in test [4], above 100 µM; in test [10], 77.5 µM; in test [5], above 100 µM. Moreover, the values for the TGI in test [6], in [7] and in [9] were above 100 µM, above 100 µM and 74.9 µM, respectively.
In the case of `CN1CC(C(=O)C2C(=O)c3ccccc3C2=O)C(=O)C(=O)C(C(=O)C2C(=O)c3ccccc3C2=O)C1` (centres undefined), the TGI in test [2], in test [3], in [4], in [10], in [5] and in [6] was above 100 µM in each case. Also, the TGI in test [7], in test [8] and in test [9] was above 100 µM throughout.
As to `COc1cc2c(cc1O)CC13CCC(=O)N1CCc1cc(OC)c(O)c-2c13` (centres undefined), the TGI in test [1], in test [2], in test [3], in test [4], in test [10] and in test [5] was above 68.1 µM each time. Moreover, the TGI in [6], in test [8] and in test [9] was above 68.1 µM each time.
With `COc1ccc(-c2ccc(-c3ccc(-c4ccc(C(=N)N)cc4)s3)s2)cc1OC`, the GI50 was 19.5 µM in [2]; 0.937 µM in [3]; 14.4 µM in test [10]; 2.43 µM in [5]; 18.1 µM in test [6]; 14.1 µM in [7]. The GI50 in test [8] is 13 µM; in test [9], 1.74 µM. In addition, the TGI in [2] is 50.9 µM; in [3] it was 3.78 µM; in test [10], 31 µM; in [5], 6.26 µM; in test [6], 40.6 µM; in [7], 62.2 µM. The figures for the TGI in test [8] and in [9] were 49.6 µM and 6 µM, respectively.
`CN(C)C(=O)c1cc2cnc(Nc3ccc(-c4csc5c(=O)cc(N6CCOCC6)oc45)cc3)nc2n1C1CCCC1`: the GI50 in [1] was 0.293 µM; in test [2] it was 0.222 µM; in [4], 0.112 µM; in [10] it was 0.085 µM; in test [5], 0.182 µM; in test [6] it was 0.207 µM. The GI50 is 0.247 µM in test [7] and 0.101 µM in [9]. In addition, the TGI was above 53.7 µM in test [1]; 0.353 µM in test [4]; 0.373 µM in [10]; 0.87 µM in [5]; 0.869 µM in test [6]; 1.3 µM in test [7]. Further, in [9], the TGI is above 80 µM.
As for `COc1ccccc1/C=N\N=C(N/N=C/c1ccccc1OC)N/N=C/c1ccccc1OC`, the GI50 in test [1] is 3.43 µM; in test [2], 3.69 µM; in test [4], 3.33 µM; in test [10], 2.72 µM; in test [5] it was 3.91 µM; in [6] it was 6.41 µM. The results for the GI50 in test [7], in [8] and in test [9] were 4.55 µM, 3.73 µM and 3.16 µM, respectively. Further, the TGI in [1] was above 100 µM; in [2], above 100 µM; in test [4], 11.3 µM; in test [10], 9.4 µM; in test [5] it was above 100 µM; in test [6], above 100 µM. Moreover, the TGI in test [7] was above 100 µM; in test [8], 20.8 µM; in test [9], 12.5 µM.
For `CC(=O)CCCCO`, the TGI in [1], in [2], in test [3], in test [4], in [10] and in test [5] was above 100 µM each time. Also, the TGI in [6], in [7] and in test [8] was above 100 µM in each case.
Consider `O=c1cc(-c2ccccc2)[nH]n1-c1nc2ccccc2[nH]1`, for which the GI50 in test [2] was 8.67 µM; in test [3], 6.81 µM; in test [4] it was 4.61 µM; in test [10], 4.66 µM; in test [5], 9.69 µM; in test [6], 3.61 µM. For the same compound, the figures for the GI50 in [7], in [8] and in [9] were 3.65 µM, 17.7 µM and 5.86 µM, respectively. In addition, the TGI in test [2] was above 100 µM; in test [3], above 100 µM; in test [4], 28.1 µM; in test [10], above 100 µM; in test [5], above 100 µM; in [6] it was above 100 µM. For the same compound, the TGI in test [7] was 17.6 µM; in [8] it was above 100 µM; in [9], above 100 µM.
Regarding `C=CC1CC12C(=O)C1OC2(C)C2C(=O)c3c(O)ccc(O)c3C(=O)C12` (centres undefined), the GI50 was 7.84 µM in test [1]; 2.8 µM in test [2]; 3.26 µM in [3]; 2.35 µM in [4]; 6.03 µM in test [10]; 2.95 µM in test [5]. In addition, the figures for the GI50 in test [6], in [7] and in test [8] were 4.94 µM, 6.23 µM and 1.46 µM, respectively. For the same compound, the TGI in test [1] was 25.6 µM; in [2] it was 9.58 µM; in test [3] it was above 100 µM; in [4], 10.6 µM; in test [10] it was 15.3 µM; in test [5] it was 8.01 µM. In addition, the figures for the TGI in test [6], in [7] and in test [8] were 25.4 µM, 16.8 µM and 4.76 µM, respectively.
In the case of `c1ccc2c(c1)[nH]c1cnc3c4cccnc4[nH]c3c12`, the TGI in test [1] came out at 32.6 µM; in [2] it was 36.1 µM; in [3], 40.1 µM; in test [4], 45 µM; in test [10] it was 32.6 µM; in [5] it was 62.1 µM. The TGI in test [6] was 38.4 µM; in test [8], 49 µM; in [9] it was 48.7 µM.
On to `Cc1cc(=O)oc2cc(OCc3c(F)cccc3Cl)ccc12`, for which the TGI is above 100 µM in test [1]; above 100 µM in test [2]; above 100 µM in [3]; above 100 µM in [4]; 34.1 µM in [10]; above 100 µM in test [5]. The TGI in test [6], in test [7] and in test [8] was above 100 µM each time.
On to `O=C1c2c(n(Cc3ccccc3)c(=O)n2Cc2ccccc2)C(=O)N1Cc1ccccc1`, for which the TGI in test [1], in test [2], in test [3], in [4], in test [10] and in test [5] was above 100 µM in each case. In addition, the TGI in test [6], in test [7] and in test [8] was above 100 µM throughout.
For the compound `COc1ccc(/C=C\c2cc(OC)c(OC)c(OC)c2)cc1OC(=O)CCC(=O)O`, the TGI in [1] is above 100 µM; in test [2] it was 45.1 µM; in test [3] it was above 100 µM; in test [4], above 100 µM; in test [10] it was above 100 µM; in test [5] it was above 100 µM. The TGI in test [6] and in test [9] was above 100 µM throughout.
As to `O=C(C(=O)N1CC2C=CC1CC2)c1c[nH]c2ccccc12` (centres undefined), the TGI in test [1], in test [2], in test [3], in test [4], in test [10] and in test [7] was above 100 µM throughout. For the same compound, the TGI in test [8] and in [9] was above 100 µM each time.
For `COc1cc(-c2nc3sc4c(c3c(=O)[nH]2)CCCCCC4)cc(OC)c1OC`, the GI50 in [2] was 2.97 µM; in test [3] it was 4.58 µM; in test [4], 1.42 µM; in test [10], 0.701 µM; in test [5], 1.43 µM; in [6] it was 1.95 µM. For the same compound, the figures for the GI50 in test [7], in test [8] and in test [9] were 0.887 µM, 4.32 µM and 0.776 µM, respectively. Besides, the TGI was above 33.2 µM in [2]; above 33.2 µM in test [3]; above 33.2 µM in test [4]; 2.52 µM in test [10]; above 33.2 µM in [5]; above 33.2 µM in test [6]. For the same compound, the TGI is 9.46 µM in test [7], 20.5 µM in test [8] and above 33.2 µM in [9].
